# From patent US20130040882A1, “USE OF FIBROBLAST GROWTH FACTOR FRAGMENTS” (NOVARTIS AG, priority 2003, published 2013)
# Like-named read-outs stand apart in the source and are kept apart here.
# Tested on: transcript levels in tissues (GH/IGF and glucagon/insulin axes, SSTR signalling)
# Type: in vivo, cynomolgus monkeys
substance,measurement,setting,value
cyclo[4-(NH2—C2H4—NH—CO—O)Pro-Phg-DTrp-Lys-Tyr(4-Bzl)-Phe] [SOM230],Calcium/calmodulin-dependent protein kinase (CaM kinase) II β expression ↑ (fold change),spleen,II β ↑ x2
same,"Calmodulin 1 (phosphorylase kinase, δ) expression ↑ (fold change)",spleen,"kinase, δ) ↑ x2"
same,"Calmodulin 2 (phosphorylase kinase, δ) expression ↑ (fold change)",spleen,"kinase, δ) ↑ x1.5"
same,"Caspase 8, apoptosis-related cysteine protease expression ↑ (fold change)",spleen,↑ x2.5
same,Cdk 2 expression ↑ (fold change),spleen,Cdk 2 ↑ x1.5
same,"Cdk 5, regulatory subunit 1 (p35) expression ↑ (fold change)",spleen,1 (p35) ↑ x2
same,Cdk 6 expression ↑ (fold change),spleen,Cdk 6 ↑ x3
same,Cyclin D2 expression ↑ (fold change),spleen,x1.5
same,Cyclin I expression ↓ (fold change),spleen,Cyclin I ↓ x1.5
same,Death-associated protein expression ↑ (fold change),spleen,protein ↑ x1.5
same,Dopamine receptor D4 expression ↓ (fold change),spleen,receptor D4 ↓ x2
same,EGF (β-urogastrone) expression ↓ (fold change),spleen,urogastrone) ↓ x2
same,Follistatin-like 1 expression ↑ (fold change),spleen,↑ x1.5
same,Gastric inhibitory polypeptide receptor expression ↑ (fold change),spleen,↑ x2
same,Gene expression (AvgDiff): IGF-1,spleen,85
same,Gene expression (AvgDiff): IGFBP6,spleen,"1,043"
same,Gene expression (AvgDiff): SSTR2,spleen,93
same,HGF activator inhibitor precursor expression ↑ (fold change),spleen,x1.5
same,IFN regulatory factor 2 expression ↑ (fold change),spleen,factor 2 ↑ x3.5
same,IFN-inducible RNA-dependent protein kinase expression ↑ (fold change),spleen,↑ x2.5
same,IFNγ receptor 2 (IFNγ transducer 1) expression ↑ (fold change),spleen,x1.5
same,IFNγ responsive transcript expression ↑ (fold change),spleen,↑ x2
same,IGF-1 expression ↑ (fold change),spleen,IGF-1 ↑ x1.5
same,IGFBP6 expression ↑ (fold change),spleen,IGFBP6 ↑ x2.5
same,IL 1 receptor-like 1 expression ↑ (fold change),spleen,1 ↑ x2
same,IL-8 receptor type B expression ↑ (fold change),spleen,B ↑ x1.5
same,"IP-4-phosphatase, type 1, isoform b expression ↑ (fold change)",spleen,↑ x2
same,"K+ large conductance Ca++-activated channel, subfamily M, β member 1 expression ↑ (fold change)",spleen,↑ x2.5
same,"K+ voltage-gated channel, shaker-related subfamily, member 3 expression ↓ (fold change)",spleen,member 3 ↓ x3
same,LTb4 (chemokine rceptor-like 1) expression ↑ (fold change),spleen,rceptor-like 1) ↑ x3
same,"Nuclear factor of activated T-cells, cytoplasmic, calcineurin-dependent 1 expression ↓ (fold change)",spleen,dependent 1 ↓ x5
same,"PDGF, α polypeptide expression ↑ (fold change)",spleen,polypeptide ↑ x2.5
same,"PDGFR, α polypeptide expression ↑ (fold change)",spleen,polypeptide ↑ x1.5
same,"PI-3-kinase, catalytic, α polypeptide expression ↓ (fold change)",spleen,polypeptide ↓ x2.5
same,"PI-3-kinase, class 2, β polypeptide expression ↑ (fold change)",spleen,↑ x1.5
same,"PI-3-kinase, class 3 expression ↑ (fold change)",spleen,3 ↑ x2
same,"PKC, α binding protein expression ↑ (fold change)",spleen,protein ↑ x2
same,PLA2 expression ↑ (fold change),spleen,PLA2 ↑ x2
same,PTHR 1 expression ↓ (fold change),spleen,PTHR 1 ↓ x2.5
same,"Phosphatidyl inositol glycan, class B expression ↑ (fold change)",spleen,B ↑ x1.5
same,Programmed cell death 10 expression ↑ (fold change),spleen,death 10 ↑ x1.5
same,Putative chemokine receptor; GTP-binding protein expression ↑ (fold change),spleen,↑ x2.5
same,Rb binding protein expression ↑ (fold change),spleen,↑ x2
same,Rb-binding protein 8 expression ↑ (fold change),spleen,8 ↑ x1.5
same,S-phase kinase-associated protein 1A (p19A) expression ↑ (fold change),spleen,1A (p19A) ↑ x2
same,SSTR2 expression ↑ (fold change),spleen,SSTR2 ↑ x2
same,Solute carrier family 9 (Na+/H+ exchanger) isoform 3 regulatory factor 1 expression ↑ (fold change),spleen,↑ x10.5
same,TGF induced protein expression ↑ (fold change),spleen,protein ↑ x1.5
same,"TGFβ receptor III (betaglycan, 300 kD) expression ↓ (fold change)",spleen,↓ x1.5
same,TNF (cachectin) expression ↑ (fold change),spleen,↑ x2
same,"TNF (ligand) superfamily, member 13 expression ↑ (fold change)",spleen,member 13 ↑ x2.5
same,"TNFR superfamily, member 12 expression ↑ (fold change)",spleen,member 12 ↑ x1.5
same,Tumour protein p53-binding protein expression ↑ (fold change),spleen,↑ x1.5
same,VEGF expression ↑ (fold change),spleen,VEGF ↑ x1.5
same,Vasodilatator-stimulated phosphoprotein expression ↑ (fold change),spleen,phosphoprotein ↑ x2
same,β adrenergic receptor kinase 1 expression ↑ (fold change),spleen,kinase 1 ↑ x3
same,S-phase kinase-associated protein 1A expression ↑ (fold change),"spleen, second entry, without (p19A)",1A ↑ x2
same,"ATPase, Ca++ transporting, cardiac muscle, fast twitch 1 expression ↓ (fold change)",thyroid,↓ x4.5
same,Adenylate cyclase activating polypeptide precursor expression ↓ (fold change),thyroid,x1.5
same,"Adrenergic, α-2C-, receptor expression ↓ (fold change)",thyroid,↓ x2.5
same,Bcl-2 binding component 3 expression ↓ (fold change),thyroid,↓ x2
same,Brain cannabinoid receptor 1 expression ↓ (fold change),thyroid,↓ x2
same,CD2 antigen (cytoplasmic tail)-binding protein 2 expression ↑ (fold change),thyroid,↑ x3.5
same,"CD2 antigen (p50), sheep red blood cell receptor expression ↓ (fold change)",thyroid,↓ x7.5
same,COL1A1 and PDGFB fusion transcript expression ↓ (fold change),thyroid,transcript ↓ x6
same,"Cadherin 13, H-cadherin (heart) expression ↑ (fold change)",thyroid,↑ x2
same,Calcium/calmodulin dependent protein kinase 1 expression ↓ (fold change),thyroid,↓ x2
same,Calcium/calmodulin-dependent PK IV expression ↓ (fold change),thyroid,IV ↓ x7.5
same,Calmodulin-dependent PK IV (CaM-kinase IV) expression ↓ (fold change),thyroid,IV) ↓ x7.5
same,Cannabinoid receptor 2 (macrophage) expression ↑ (fold change),thyroid,↑ x3
same,Cdc-like 5 (cholinesterase-related cell division controller) expression ↓ (fold change),thyroid,x2
same,"Cdk 5, regulatory subunit 1 (p35) expression ↓ (fold change)",thyroid,subunit 1 (p35) ↓ x5
same,Cdk (CDC2-like) expression ↓ (fold change),thyroid,Cdk (CDC2-like) ↓ x9
same,"Chemokine (C-X-C motif), receptor 4 (fusin) expression ↓ (fold change)",thyroid,↓ x3
same,Chole-cystokinin B receptor expression ↓ (fold change),thyroid,receptor ↓ x3
same,Cyclin B2 expression ↓ (fold change),thyroid,Cyclin B2 ↓ x2.5
same,"DAG 1 kinase, α (80 kD) expression ↓ (fold change)",thyroid,(80 kD) ↓ x4
same,"Egf-like module containing, mucin-like, hormone receptor-like sequence 1 expression ↓ (fold change)",thyroid,sequence 1 ↓ x5
same,FKBP-associated protein expression ↓ (fold change),thyroid,protein ↓ x2.5
same,Flt3 ligand expression ↓ (fold change),thyroid,Flt3 ligand ↓ x4.5
same,Fms-related tyrosine kinase 1(VEGF/vascular permeability factor receptor) expression ↓ (fold change),thyroid,↓ x2
same,"GABA (A) receptor, γ2 precursor expression ↓ (fold change)",thyroid,↓ x1.5
same,"GABA (B) receptor 1, isoform a precursor expression ↑ (fold change)",thyroid,↑ x2.5
same,Gastric inhibitory polypeptide 1 receptor expression ↓ (fold change),thyroid,receptor ↓ x2
same,Gene expression (AvgDiff): IGF-1,thyroid,58
same,"Glutamate receptor, metabotropic 2 precursor expression ↓ (fold change)",thyroid,precursor ↓ 3.5
same,Growth arrest-specific 1 expression ↓ (fold change),thyroid,1 ↓ x2.5
same,IFNα-inducible protein 27 expression ↑ (fold change),thyroid,27 ↑ x3
same,IFNγ responsive transcript expression ↓ (fold change),thyroid,↓ x1.5
same,IFNγ-inducible protein 30 expression ↑ (fold change),thyroid,protein 30 ↑ x3.5
same,IGF-1 expression ↓ (fold change),thyroid,IGF-1 ↓ x1.5
same,IL2-inducible T-cell kinase expression ↓ (fold change),thyroid,↓ x12
same,IL9 receptor expression ↓ (fold change),thyroid,IL9 receptor ↓ x2
same,IP3 receptor type 3 expression ↓ (fold change),thyroid,type 3 ↓ x1.5
same,"K+ voltage-gated channel, shaker-related subfamily, member 3 expression ↓ (fold change)",thyroid,↓ x4.5
same,LTB4 receptor (chemokine receptor-like 1) expression ↓ (fold change),thyroid,↓ x1.5
same,Lymphocyte specific protein tyrosine kinase expression ↓ (fold change),thyroid,↓ x4
same,P56lck expression ↓ (fold change),thyroid,P56lck ↓ x18
same,PDGF-associated Protein expression ↑ (fold change),thyroid,Protein ↑ x2
same,PDGFR α expression ↓ (fold change),thyroid,↓ x3
same,PDGFR β expression ↑ (fold change),thyroid,↑ x2
same,PIP 5-phosphatase type IV expression ↓ (fold change),thyroid,type IV ↓ x3
same,"PLC, γ1 (formerly subtype 148) expression ↓ (fold change)",thyroid,↓ x2
same,Phosphatidyl ethanolamine N-methyltransferase expression ↑ (fold change),thyroid,↑ x2
same,"Pro-platelet basic protein (includes platelet basic protein, β-thromboglobulin, connective tissue-activating peptide III, neu) 2 expression ↑ (fold change)",thyroid,2 ↑ x3.5
same,RAG1 expression ↓ (fold change),thyroid,RAG1 ↓ x18
same,RAG2 expression ↓ (fold change),thyroid,RAG2 ↓ x5
same,RANTES expression ↑ (fold change),thyroid,RANTES ↑ x10.5
same,"SH2 domain protein 1A, Duncan's disease (lymphoproliferative syndrome) expression ↓ (fold change)",thyroid,↓ x7.5
same,Signalling lymphocytic activation molecule expression ↓ (fold change),thyroid,↓ x4.5
same,"Solute carrier family 21 (PG transporter), member 2 expression ↑ (fold change)",thyroid,member 2 ↑ x2
same,TCR ζ chain precursor expression ↓ (fold change),thyroid,↓ x5.5
same,"TNF (ligand) superfamily, member 10 expression ↑ (fold change)",thyroid,↑ x2
same,TSHR expression ↓ (fold change),thyroid,TSHR ↓ x2
same,Thrombospondin 2 expression ↑ (fold change),thyroid,2 ↑ x2
same,"Transcription factor 7 (T-cell specific, HMG-box) expression ↓ (fold change)",thyroid,box) ↓ x16.5
same,VWF precursor expression ↑ (fold change),thyroid,precursor ↑ x2
same,c-AMP responsive element binding protein 1 expression ↓ (fold change),thyroid,protein 1 ↓ x2
same,"Endothelial differentiation-related factor 1 expression, direction of change","thyroid, arrow only, factor not given",related factor 1 ↑
